Publication PMC8062851, “2-Methoxyestradiol and its derivatives inhibit store-operated Ca^2+ entry in T cells: Identification of a new and potent inhibitor” (Biochimica et Biophysica Acta. Molecular Cell Research, 2021)

Key:
[1] = test system: Mn2+ entry into Jurkat T cells; assay: Mn2+ quenching of Fura2 after store depletion in Jurkat T cells; format: cell-based, human; details: store depletion by thapsigargin, 10 μM
Experimental: Mn^2+ quenching of Fura2 was used to analyze influx of divalent cations into Jurkat T cells. Like for Ca^2+ measurements, 10^6 loaded Jurkat T-lymphocytes were pelleted and Ca^2+ buffer was exchanged for nominal Ca^2+ free buffer (see above). Instead of Ca^2+, Mn^2+ was added 1220 s after the start of the measurement. To investigate Mn^2+ quenching independently of any effects of Ca^2+, Fura2 was excited at its isosbestic point, which was experimentally determined to be 357 nm. The emission wavelength was set to 495 nm. In contrast to the Ca^2+ measurement experiments, these measurements were not calibrated.
For quantitative analysis, the velocity of quenching was calculated as the initial slope. After Mn^2+ addition, there was a very fast drop in Fura2 fluorescence in all experiments. This drop lasted for about 10 s and was probably due to quenching of extracellular Fura2. […]
y0 is the fluorescence at the start of the decay, P is the theoretical fluorescence at the end of the decay at infinite times, K is the rate constant, and x is the time. […]
The fluorescence before Mn^2+ addition was fitted to a straight line using the following equation:(4) y’=m·x+c
m is the slope, x is the time and c is the y-intercept. […] So the initial slope (si) after Mn^2+ addition was calculated using the following equation:(5) si=(y0–P)*(-K)*e(-K*1230s)–m

SOCE in rat TMBP cells = assay: SOCE inhibition, Ca2+ free/Ca2+ re-addition protocol in primary rat TMBP cells; format: cell-based
Experimental: Jurkat T-lymphocytes, primary human CD4^+ T cells and H1299 cells were pelleted at 450 ×g for 5 min, rat TMBP at 300 ×g for 8 min at room temperature and were resuspended in 1 ml of either standard JMP medium (Jurkat, H1299 and human CD4^+ T cells) or standard DMEM based medium containing 10% fetal bovine serum (FBS) (v/v) (TMBP cells). Resting TMBP cells (day 5–7 after re-stimulation) after the second to fifth re-stimulation were thawed from liquid nitrogen 12 to 40 h prior to Fura2-loading. After pre-incubation for 5 min at 37 °C, cells were incubated with 4 μM Fura2-AM for 15 min at 37 °C. After addition of the dye, cells were kept in the dark. Afterwards, cells and the dye were diluted by addition of 4 ml standard medium and incubated for another 15 min. Cells were washed twice in Ca^2+ buffer (140 mM NaCl, 5 mM KCl, 1 mM MgSO4, 1 mM CaCl2, 1 mM NaH2PO4, 20 mM HEPES, 5.5 mM glucose; pH 7.4 (NaOH), sterile filtered) and were diluted to a concentration of 2*10^6 cells/ml. […]
10^6 Jurkat T-lymphocytes, H1299 cells, TMBP cells or 4*10^6 primary human CD4^+ T cells were added into a 10 × 10 mm quartz glass cuvette (Hellma Analytics, Germany) that was placed into a fluorescence spectrophotometer (F-2710, Hitachi, Japan). […] Fluorescence intensity was measured at an emission wavelength of 495 ± 5 nm for both excitation wavelengths. […]

SOCE in H1299 cells = assay: SOCE inhibition, Ca2+ free/Ca2+ re-addition protocol in H1299 cells; format: cell-based, human; details: 10 μM
Experimental: Jurkat T-lymphocytes were cultured in RPMI 1640 medium containing 25 mM HEPES and GlutaMAX-1 (Gibco, Life Technologies), supplemented with 7.5% (v/v) newborn calf serum (NCS) (Biochrom, Merck Millipore), 100 U/ml penicillin and streptomycin (standard JMP medium). Cell density was kept between 0.3 and 1.2 ∗ 10^6 cells/ml. H1299 cells were cultured in DMEM (Dulbecco's modified Eagle's medium; Gibco, Life Technologies) supplemented with 10% (v/v) (FCS) (Biochrom, Merck Millipore), 4 mM L-glutamine, 100 μg/ml streptomycin, and 100 units/ml penicillin.
Jurkat T-lymphocytes, primary human CD4^+ T cells and H1299 cells were pelleted at 450 ×g for 5 min, rat TMBP at 300 ×g for 8 min at room temperature and were resuspended in 1 ml of either standard JMP medium (Jurkat, H1299 and human CD4^+ T cells) or standard DMEM based medium containing 10% fetal bovine serum (FBS) (v/v) (TMBP cells). […]
10^6 Jurkat T-lymphocytes, H1299 cells, TMBP cells or 4*10^6 primary human CD4^+ T cells were added into a 10 × 10 mm quartz glass cuvette (Hellma Analytics, Germany) that was placed into a fluorescence spectrophotometer (F-2710, Hitachi, Japan). […] Fluorescence intensity was measured at an emission wavelength of 495 ± 5 nm for both excitation wavelengths.

In the case of `CCc1cc2c(cc1OS(N)(=O)=O)CC[C@@H]1[C@@H]2CC[C@]2(C)[C@@H](CC#N)CC[C@@H]12` [STX564, 2-ethyl-3-sulfamoyloxy-17β-cyanomethylestra-1,3,5(10)-triene], the “antagonism of Mn2+ entry (Mn2+ quenching of Fura2)” value [1] is reported as “almost fully”, the IC50 (SOCE in rat TMBP cells) is reported as 800 nM and the SOCE inhibition (SOCE in H1299 cells) is reported as “significantly inhibited”.
